Calls of active or inactive are those of the source. The calls are words filed in the database; no cut-off is given here.
How the values were obtained:
[1] = Antiinflammatory activity against LPS-stimulated splenocytes cells isolated from thioglycolate-stimulated C57BL/6 mouse assessed as reduction of TNFalpha mRNA level at 100 to 200 uM after 24 hrs by RT-PCR; assay type: functional, Splenocyte
[2] = Cytotoxicity against LPS-stimulated splenocytes isolated from thioglycolate-stimulated C57BL/6 mouse assessed as alterations in forward and side scattering distribution for splenocytes using propidium iodide-staining after 24 hrs by FACS analysis; assay type: cell-based; conditions: splenocyte
RAW264.7 [3] = assay: Antiinflammatory activity against LPS-stimulated […] at 100 uM after 24 hrs by ELISA relative to control; assay type: functional; conditions: RAW264.7, 24 h
RAW264.7 [4] = assay: Toxicity in LPS-stimulated […] assessed as decrease in live cells at 100 uM using propidium iodide-staining by FACS analysis; assay type: cell-based; conditions: raw264.7, 100 µM
[5] = Cytotoxicity against LPS-stimulated splenocytes isolated from thioglycolate-stimulated C57BL/6 mouse assessed as alterations in forward and side scattering distribution for splenocytes using propidium iodide-staining after 48 hrs by FACS analysis; assay type: cell-based; conditions: splenocyte
Splenocyte [6] = assay: Antiinflammatory activity against LPS-stimulated splenocytes isolated from thioglycolate-stimulated C57BL/6 mouse at 10 to 100 uM after 24 hrs by ELISA relative to control; assay type: functional, cell-based
[7] = Cytotoxicity against splenocytes isolated from thioglycolate-stimulated C57BL/6 mouse at 10 to 100 uM after 2 hrs by MTT assay; assay type: cell-based; conditions: splenocyte
[8] = Toxicity in LPS-stimulated splenocytes cells isolated from thioglycolate-stimulated C57BL/6 mouse assessed as decrease in live cells at 100 uM after 48 hrs using propidium iodide-staining by FACS analysis; assay type: cell-based; conditions: splenocyte
[9] = Toxicity in LPS-stimulated splenocytes cells isolated from thioglycolate-stimulated C57BL/6 mouse assessed as decrease in live cells at 100 uM after 24 hrs using propidium iodide-staining by FACS analysis; assay type: cell-based; conditions: splenocyte
RAW264.7 [10] = assay: Cytotoxicity against […] assessed as effect on cell viability at 100 uM after 2 hrs by MTT assay; assay type: cell-based; conditions: raw264.7, 2 h
[11] = molecular target: Disintegrin and metalloproteinase domain-containing protein 17 (Homo sapiens) (UniProt P78536); assay: Inhibition of recombinant TACE using Mca-P-L-A-Q-A-V-Dpa-R-S-S-S-R-NH2 as substrate at 1 to 100 uM after 3 hrs by fluorescence assay
Sequence of Disintegrin and metalloproteinase domain-containing protein 17 (Homo sapiens) (P78536 whole entry, the tested form may be a part): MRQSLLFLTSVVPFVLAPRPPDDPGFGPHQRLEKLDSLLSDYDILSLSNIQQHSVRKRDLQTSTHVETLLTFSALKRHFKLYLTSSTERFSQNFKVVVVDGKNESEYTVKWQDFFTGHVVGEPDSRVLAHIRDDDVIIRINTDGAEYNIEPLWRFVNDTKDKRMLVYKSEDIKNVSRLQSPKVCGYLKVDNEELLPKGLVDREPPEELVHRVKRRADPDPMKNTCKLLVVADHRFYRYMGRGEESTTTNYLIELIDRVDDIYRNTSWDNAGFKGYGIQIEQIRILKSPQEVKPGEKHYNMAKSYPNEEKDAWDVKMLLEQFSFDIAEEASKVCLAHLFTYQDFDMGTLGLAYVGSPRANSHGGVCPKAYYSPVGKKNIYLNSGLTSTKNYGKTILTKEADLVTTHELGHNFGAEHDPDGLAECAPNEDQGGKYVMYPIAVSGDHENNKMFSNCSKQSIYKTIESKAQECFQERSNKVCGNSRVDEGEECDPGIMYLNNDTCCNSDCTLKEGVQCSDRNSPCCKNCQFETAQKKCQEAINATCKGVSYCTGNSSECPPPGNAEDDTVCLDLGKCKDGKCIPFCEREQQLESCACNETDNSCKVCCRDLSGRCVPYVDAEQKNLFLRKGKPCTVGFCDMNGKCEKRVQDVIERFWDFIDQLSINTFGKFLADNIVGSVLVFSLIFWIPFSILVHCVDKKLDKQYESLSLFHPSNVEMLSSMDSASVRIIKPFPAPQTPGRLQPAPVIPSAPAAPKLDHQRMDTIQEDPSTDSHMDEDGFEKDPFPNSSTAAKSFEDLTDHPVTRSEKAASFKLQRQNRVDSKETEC

RAW264.7 [12] = assay: Cytotoxicity against […] assessed as effect on cell viability at 10 uM after 2 hrs by MTT assay; assay type: cell-based; conditions: raw264.7, 2 h
RAW264.7 [13] = assay: Antiinflammatory activity against LPS-stimulated […] at 10 uM after 24 hrs by ELISA relative to control; assay type: functional; conditions: RAW264.7, 24 h
[14] = Toxicity in LPS-stimulated splenocytes isolated from thioglycolate-stimulated C57BL/6 mouse assessed as decrease in live cells at 10 uM after 24 hrs using propidium iodide-staining by FACS analysis; assay type: cell-based; conditions: splenocyte
[15] = Cytotoxicity against splenocytes isolated from thioglycolate-stimulated C57BL/6 mouse at 10 uM after 2 hrs by MTT assay; assay type: cell-based; conditions: splenocyte
[16] = Toxicity in LPS-stimulated splenocytes isolated from thioglycolate-stimulated C57BL/6 mouse assessed as decrease in live cells at 10 uM after 48 hrs using propidium iodide-staining by FACS analysis; assay type: cell-based; conditions: splenocyte
Splenocyte [17] = assay: Antiinflammatory activity against LPS-stimulated splenocytes isolated from thioglycolate-stimulated C57BL/6 mouse at 10 uM after 24 hrs by ELISA relative to control; assay type: functional, cell-based

Row | Compound | inhibition (INH) [1] [%] | Activity [2] | inhibition at 100 µM (RAW264.7 [3]) [%] | Activity (RAW264.7 [4]) | Activity [5] | inhibition (Splenocyte [6]) | Activity [7] | Activity [8] | Activity [9] | Activity (RAW264.7 [10]) | inhibition [11] | Activity (RAW264.7 [12]) | inhibition at 10 µM (RAW264.7 [13]) [%] | Activity [14] | Activity [15] | Activity [16] | inhibition (Splenocyte [17])
1 | O=C(NCCN1CCCCC1)P(=O)(O)O | 30 | Non-toxic | 60 | Non-toxic | Non-toxic | Active | Non-toxic | Non-toxic | Non-toxic | Non-toxic | Active |  |  |  |  |  | 
2 | N[C@H]1CCCC[C@H]1NC(=O)P(=O)(O)O (relative stereo) | 30 | Non-toxic | 60 | Non-toxic | Non-toxic | Active | Non-toxic | Non-toxic | Non-toxic | Non-toxic | inactive |  |  |  |  |  | 
3 | CCCC1O[C@@H]2C[C@H]3[C@@H]4CCC5=CC(=O)C=C[C@]5(C)[C@H]4[C@@H](O)C[C@]3(C)[C@]2(C(=O)CO)O1 (stereo not given in full) [BUDESONIDE] |  |  |  |  |  |  |  |  |  |  |  | Non-toxic | 60 | Toxic | Non-toxic | Toxic | Active
4 | O=C(NCCN1CCCC1)P(=O)(O)O | 30 | Non-toxic | 60 | Non-toxic | Non-toxic | Active | Non-toxic | Non-toxic | Non-toxic | Non-toxic | inactive |  |  |  |  |  | Active

Source: ChEMBL document CHEMBL1799958, “Aminoalkylcarbamoylphosphonates reduce TNFα release from activated immune cells” (Bioorg Med Chem Lett, 2010)
